The source made the active and inactive calls. The rule behind the calls is not given here.
System: CCRIS mutagenicity, Ames/micronucleus/aberration tests
Assay: CCRIS mutagenicity studies
[1] = Test System: AMES SALMONELLA TYPHIMURIUM, Strain/Indicator: TA98, Metabolic Activation: NONE, Method: PREINCUBATION
[2] = Test System: AMES SALMONELLA TYPHIMURIUM, Strain/Indicator: TA100, Metabolic Activation: NONE, Method: PREINCUBATION
[3] = Test System: AMES SALMONELLA TYPHIMURIUM, Strain/Indicator: TA100, Metabolic Activation: NONE, Method: STANDARD PLATE
[4] = Test System: AMES SALMONELLA TYPHIMURIUM, Strain/Indicator: TA1535, Metabolic Activation: NONE, Method: PREINCUBATION

Measured: mutagenic call

CN(C)N
active: End Point: IN VITRO CHROMOSOMAL ABERRATIONS, Test System: CHL CELLS, Metabolic Activation: NONE active; positive (structural changes) | End Point: IN VITRO CHROMOSOMAL ABERRATIONS, Test System: CHL CELLS, Metabolic Activation: RAT, LIVER, S-9, SODIUM PHENOBARBITAL AND 5,6-BENZOFLAVONE active; positive (structural changes) | Test System: AMES SALMONELLA TYPHIMURIUM, Strain/Indicator: TA1530, Metabolic Activation: NONE, Method: STANDARD PLATE active; positive | Test System: AMES SALMONELLA TYPHIMURIUM, Strain/Indicator: TA2638, Metabolic Activation: NONE, Method: STANDARD PLATE active; positive | Test System: E. COLI, Strain/Indicator: WP2 (PKM101), Metabolic Activation: NONE, Method: STANDARD PLATE active; positive | Test System: E. COLI, Strain/Indicator: WP2 UVRA (PKM101), Metabolic Activation: NONE, Method: STANDARD PLATE active; positive
inactive: [1] inactive; negative | Test System: AMES SALMONELLA TYPHIMURIUM, Strain/Indicator: TA98, Metabolic Activation: RAT LIVER S-9, PHENOBARBITAL AND BETA-NAPHTHOFLAVONE, Method: PREINCUBATION inactive; negative | [2] inactive; negative | [3] inactive; negative | Test System: AMES SALMONELLA TYPHIMURIUM, Strain/Indicator: TA100, Metabolic Activation: RAT LIVER S-9, PHENOBARBITAL AND BETA-NAPHTHOFLAVONE, Method: PREINCUBATION inactive; negative | Test System: AMES SALMONELLA TYPHIMURIUM, Strain/Indicator: TA100, Metabolic Activation: RAT, LIVER, S-9, AROCLOR 1254 (1 OR 2 MG), Method: STANDARD PLATE inactive; negative | Test System: AMES SALMONELLA TYPHIMURIUM, Strain/Indicator: TA100, Metabolic Activation: RAT, LIVER, S-9, AROCLOR 1254, Method: STANDARD PLATE inactive; negative | Test System: AMES SALMONELLA TYPHIMURIUM, Strain/Indicator: TA102, Metabolic Activation: NONE, Method: PREINCUBATION inactive; negative | Test System: AMES SALMONELLA TYPHIMURIUM, Strain/Indicator: TA102, Metabolic Activation: NONE, Method: STANDARD PLATE inactive; negative | Test System: AMES SALMONELLA TYPHIMURIUM, Strain/Indicator: TA102, Metabolic Activation: RAT LIVER S-9, PHENOBARBITAL AND BETA-NAPHTHOFLAVONE, Method: PREINCUBATION inactive; negative | Test System: AMES SALMONELLA TYPHIMURIUM, Strain/Indicator: TA102, Metabolic Activation: RAT, LIVER, S-9, AROCLOR 1254 (1 OR 2 MG), Method: STANDARD PLATE inactive; negative | Test System: AMES SALMONELLA TYPHIMURIUM, Strain/Indicator: TA102, Metabolic Activation: RAT, LIVER, S-9, AROCLOR 1254, Method: STANDARD PLATE inactive; negative | Test System: AMES SALMONELLA TYPHIMURIUM, Strain/Indicator: TA104, Metabolic Activation: NONE, Method: PREINCUBATION inactive; negative | Test System: AMES SALMONELLA TYPHIMURIUM, Strain/Indicator: TA104, Metabolic Activation: RAT LIVER S-9, PHENOBARBITAL AND BETA-NAPHTHOFLAVONE, Method: PREINCUBATION inactive; negative | [4] inactive; negative | Test System: AMES SALMONELLA TYPHIMURIUM, Strain/Indicator: TA1535, Metabolic Activation: RAT LIVER S-9, PHENOBARBITAL AND BETA-NAPHTHOFLAVONE, Method: PREINCUBATION inactive; negative | Test System: AMES SALMONELLA TYPHIMURIUM, Strain/Indicator: TA1535, Metabolic Activation: RAT, LIVER, S-9, AROCLOR 1254, Method: PREINCUBATION inactive; negative | Test System: AMES SALMONELLA TYPHIMURIUM, Strain/Indicator: TA1537, Metabolic Activation: RAT LIVER S-9, PHENOBARBITAL AND BETA-NAPHTHOFLAVONE, Method: PREINCUBATION inactive; negative | Test System: AMES SALMONELLA TYPHIMURIUM, Strain/Indicator: TA1537, Metabolic Activation: RAT, LIVER, S-9, AROCLOR 1254, Method: PREINCUBATION inactive; negative | Test System: E.COLI, Strain/Indicator: WP2UVRA/PKM101, Metabolic Activation: NONE, Method: PREINCUBATION inactive; negative | Test System: E.COLI, Strain/Indicator: WP2UVRA/PKM101, Metabolic Activation: RAT LIVER S-9, PHENOBARBITAL AND BETA-NAPHTHOFLAVONE, Method: PREINCUBATION inactive; negative | Test System: E.COLI, Strain/Indicator: WP2UVRA, Metabolic Activation: NONE, Method: PREINCUBATION inactive; negative | Test System: E.COLI, Strain/Indicator: WP2UVRA, Metabolic Activation: RAT LIVER S-9, PHENOBARBITAL AND BETA-NAPHTHOFLAVONE, Method: PREINCUBATION inactive; negative

CCC(O)CN (configuration not stated)
inactive: Test System: AMES SALMONELLA TYPHIMURIUM, Strain/Indicator: TA97, Metabolic Activation: HAMSTER, LIVER, S-9, AROCLOR 1254 (10 OR 30%), Method: PREINCUBATION inactive; negative | Test System: AMES SALMONELLA TYPHIMURIUM, Strain/Indicator: TA97, Metabolic Activation: NONE, Method: PREINCUBATION inactive; negative | Test System: AMES SALMONELLA TYPHIMURIUM, Strain/Indicator: TA97, Metabolic Activation: RAT, LIVER, S-9, AROCLOR 1254 (10 OR 30%), Method: PREINCUBATION inactive; negative | Test System: AMES SALMONELLA TYPHIMURIUM, Strain/Indicator: TA98, Metabolic Activation: HAMSTER, LIVER, S-9, AROCLOR 1254 (10 OR 30%), Method: PREINCUBATION inactive; negative | [1] inactive; negative | Test System: AMES SALMONELLA TYPHIMURIUM, Strain/Indicator: TA98, Metabolic Activation: RAT, LIVER, S-9, AROCLOR 1254 (10 OR 30%), Method: PREINCUBATION inactive; negative | Test System: AMES SALMONELLA TYPHIMURIUM, Strain/Indicator: TA100, Metabolic Activation: HAMSTER, LIVER, S-9, AROCLOR 1254 (10 OR 30%), Method: PREINCUBATION inactive; negative | [2] inactive; negative | Test System: AMES SALMONELLA TYPHIMURIUM, Strain/Indicator: TA100, Metabolic Activation: RAT, LIVER, S-9, AROCLOR 1254 (10 OR 30%), Method: PREINCUBATION inactive; negative | Test System: AMES SALMONELLA TYPHIMURIUM, Strain/Indicator: TA1535, Metabolic Activation: HAMSTER, LIVER, S-9, AROCLOR 1254 (10 OR 30%), Method: PREINCUBATION inactive; negative | [4] inactive; negative | Test System: AMES SALMONELLA TYPHIMURIUM, Strain/Indicator: TA1535, Metabolic Activation: RAT, LIVER, S-9, AROCLOR 1254 (10 OR 30%), Method: PREINCUBATION inactive; negative

CS(=O)CCCCN=C=S (configuration not stated)
inactive: End Point: IN VITRO MICRONUCLEUS, Test System: HUMAN T-LYMPHOCYTES, Metabolic Activation: NONE inactive; negative

Cn1ccc2ccc3ccc4ccc(O)cc4c3c21
active: Test System: AMES SALMONELLA TYPHIMURIUM, Strain/Indicator: TA98, Metabolic Activation: RAT, LIVER, S-9, AROCLOR, Method: STANDARD PLATE active; positive

COc1ccc(CN2C3c4ccccc4-c4ccccc4C32)cc1 (configuration not stated)
active: [3] active; positive

CC(C)(S)C(=O)N[C@@H](CS)C(=O)O
inactive: [1] inactive; negative | Test System: AMES SALMONELLA TYPHIMURIUM, Strain/Indicator: TA98, Metabolic Activation: RAT, LIVER, S-9, Method: PREINCUBATION inactive; negative | [2] inactive; negative | Test System: AMES SALMONELLA TYPHIMURIUM, Strain/Indicator: TA100, Metabolic Activation: RAT, LIVER, S-9, Method: PREINCUBATION inactive; negative | [4] inactive; negative | Test System: AMES SALMONELLA TYPHIMURIUM, Strain/Indicator: TA1535, Metabolic Activation: RAT, LIVER, S-9, Method: PREINCUBATION inactive; negative | Test System: AMES SALMONELLA TYPHIMURIUM, Strain/Indicator: TA1537, Metabolic Activation: NONE, Method: PREINCUBATION inactive; negative | Test System: AMES SALMONELLA TYPHIMURIUM, Strain/Indicator: TA1537, Metabolic Activation: RAT, LIVER, S-9, Method: PREINCUBATION inactive; negative | Test System: AMES SALMONELLA TYPHIMURIUM, Strain/Indicator: TA1538, Metabolic Activation: NONE, Method: PREINCUBATION inactive; negative | Test System: AMES SALMONELLA TYPHIMURIUM, Strain/Indicator: TA1538, Metabolic Activation: RAT, LIVER, S-9, Method: PREINCUBATION inactive; negative | Test System: E. COLI, Strain/Indicator: WP2, Metabolic Activation: NONE, Method: PREINCUBATION inactive; negative | Test System: E. COLI, Strain/Indicator: WP2 UVRA, Metabolic Activation: NONE, Method: PREINCUBATION inactive; negative | Test System: E. COLI, Strain/Indicator: WP2 UVRA, Metabolic Activation: RAT, LIVER, S-9, Method: PREINCUBATION inactive; negative

Reference: PubChem BioAssay AID1259407 (Chemical Carcinogenesis Research Information System (CCRIS), 2018)
